Earlier results in EP1085805B1, “USE OF AT LEAST ONE ACID FROM THE CITRIC ACID CYCLE COMBINED WITH GLYCERINE AS A PESTICIDE” (Biolink Technologies AG, priority 1998, dated 1999).

SMILES	LD50 Wert Ratte oral
ClC1=C(Cl)[C@]2(Cl)[C@@H]3[C@@H]4C[C@@H]([C@H]5O[C@@H]45)[C@@H]3[C@@]1(Cl)C2(Cl)Cl [Dieldrin]	56 mg/kg Körpergewicht
Cl[C@H]1[C@H](Cl)[C@@H](Cl)[C@@H](Cl)[C@H](Cl)[C@H]1Cl [Lindan]	88 mg/kg Körpergewicht
